Source: patent US20070224635A1, “Regulated Stop Codon Readthrough” (Maxygen Holdings, Ltd., priority 2004, published 2007)

Key:
[1] = system: UGA stop codon (UGAC tetranucleotide); assay: FACS analysis of membrane-anchored protein C after G-418-induced readthrough, PC-UGAC-GPI construct; type: cell-based, Chinese hamster (CHO-K1 cells); details: with G-418, background in absence of G-418 about 13%
Protocol: (§1) As a control, the retroviral vector pLenti6-PC-GPI was used to transfect HEK293FT cells and produce retrovirus particles. After 48 hours, supernatants containing retroviral particles were harvested, filter-sterilized to remove cell debris, and subsequently used to infect CHO-K1 cells. CHO-K1 cells were selected for resistance to the Blasticidin antibiotic at the concentration of 5 mg/l for 10 days. The resulting pools of Blasticidin-resistant cells were transferred into 6 culture flasks for each cell pool and grown to 25% confluency. To induce translational readthrough, the antibiotic G-418 was added to the culture flasks at final concentrations ranging from 12.5 mg/l to 100 mg/l and flasks were incubated for another 48 hours at 37° C. […] Labeled retroviral cell lines were analyzed by FACS for membrane-anchored recombinant PC using a FACScalibur™ (Becton Dickinson) instrument with an excitation wave length of 488 nm and an emission filter of 585 nm.
(§2) The results shown in FIG. 4 illustrate that both cell lines expressing the PC-UAAC-GPI and PC-UGAC-GPI reporters display PC at the cell surface in the presence of aminoglycoside. […] Furthermore, the amount of recombinant membrane-anchored PC is more abundant for the PC-UGAC-GPI construct than for the PC-UAAC-GPI construct, and this applies to all aminoglycoside concentrations that were assessed.

[2] = system: UAA stop codon (UAAC tetranucleotide); assay: FACS analysis of membrane-anchored protein C after G-418-induced readthrough, PC-UAAC-GPI construct; type: cell-based, Chinese hamster (CHO-K1 cells); details: with G-418, background in absence of G-418 about 0.5%
Protocol: as §1, §2

UAA stop codon = assay: FACS detection of membrane-anchored FVII (FVII-UAA-GPI) in transfected CHO-K1 cells without antibiotic resistance gene; type: cell-based, Chinese hamster (CHO-K1 cells)
Protocol: The resulting PCR product encompassed the CMV promoter, the b-globin intron, the FVII gene, the UAA stop codon, the GPI anchor signal and the b-globin poly-adenylation signal (FIG. 11). The PCR product was purified and subsequently used to transfect CHO-Kcells with Lipofectamine™ 2000 (Invitrogen) as described above. Additionally, a flask containing CHO-K1 cells was incubated with Lipofectamine™ 2000 but without DNA as a negative control. Five hours after transfection, G-418 was added to the two culture flasks at a final concentration of 100 mg/L to promote translational readthrough. […] Labeled retroviral cell lines were analyzed by FACS for membrane-anchored recombinant FVII using a FACSVantage™ (Becton Dickinson) instrument with an excitation wave length of 488 nm and an emission filter of 585 nm.
Because expression of the recombinant FVII protein is correlated with expression of the FVII-GPI protein fusion arising from aminoglycoside-mediated translational readthrough, transgenic cells can be selected by means of FACS based on membrane-anchored FVII detection. […] Approximately 2500 cells from gate R3 of the transfected cells were sorted as a pool and grown for 9 days in the absence of antibiotic, after which translational readthrough was induced by treating the cells with G-418 at 100 mg/L for 2 days. […]

premature UAG mutation = details: cultured mammalian cells; cited from earlier work
[3] = system: nonsense mutation in CFTR; details: cell line carrying a nonsense mutation in CFTR; cited from earlier work

## CN[C@@H]1[C@@H](O)[C@@H](O[C@@H]2[C@@H](O)[C@H](O[C@H]3O[C@H]([C@@H](C)O)[C@@H](O)[C@H](O)[C@H]3N)[C@@H](N)C[C@H]2N)OC[C@]1(C)O [G-418]
[1]
  FACS-positive cells (up to): about 25%
[2]
  FACS-positive cells (up to): about 10%
UAA stop codon; G-418 100 mg/L for 2 days after 9 days growth, non-transfected control 1.1%, FIG. 13
  cells positive for FVII display, second FACS round: 3.4%
UAA stop codon; G-418 100 mg/L, negative control 0.4%, FIG. 12
  transfected CHO-K1 cells exhibiting fluorescence signals (gate R3), first FACS round: 7.1%

## NC[C@@H]1O[C@H](O[C@H]2[C@@H](O)[C@H](O[C@@H]3[C@@H](O)[C@H](N)C[C@H](N)[C@H]3O[C@H]3O[C@H](CO)[C@@H](O)[C@H](O)[C@H]3N)O[C@@H]2CO)[C@H](N)[C@@H](O)[C@@H]1O [paromomycin]
Premature UAG mutation
  synthesis of full-size protein from mutant gene: partially restore the synthesis of a full-size protein

## gentamicin
[3]
  expression of CFTR protein: restore the expression
